Experimental data: patent US20140121240A1, “NOVEL PHARMACEUTICAL COMPOSITION” (MARUHO CO., LTD., priority 2011, published 2014)
Marks after values point to notes of the source that are not given here.

System: oxazolone-induced inflammatory reactions of right ear auricle
Assay: Chronic oxazolone-induced dermatitis model: ear auricle thickness (Experiment 4)
Format: in vivo, mouse
Conditions: Compound A 1%, Tacrolimus 0.1%, Dexamethasone 0.01% w/v in 0.25% oxazolone
Protocol: [Antipruritic Effect of Test Compound in Chronic Oxazolone-Induced Dermatitis Model]
A magnet for measurement was implanted into an instep part of right hindlimb of BALB/c male mouse (fed for one week from five-week old; Charles River Laboratories, Japan Inc.) under anesthesia, and on the same day, sensitization was carried out by topically administering 0.5% w/v solution (10 μL) of oxazolone in acetone respectively onto the both sides of right ear auricle of the animal (sensitization day). On each point of the 7th, 9th, 11th, 14th and 16th day reckoned from the day after the sensitization (1st day), each mouse was challenged by topical administration of a 10 μL solution of test compound [acetone (vehicle-treated group), 0.25% w/v solution of oxazolone in acetone (oxazolone-treated group), or a test compound solubilized in 0.25% w/v oxazolone solution in acetone (test compound-treated group)] onto the both sides of right ear auricle of the animal to produce inflammatory reactions. Immediately after the administration, scratching behavior (counts of scratching) was measured for two hours by MicroAct. Thickness of right ear auricle of each mouse was measured by a thickness gauge before and 24 hours after the topical administration of each test compound solution. The percentage described in the Table means “% w/v”.

## COc1cc2cc(CO)c(CO)c(-c3ccnc(N4CC[C@H](O)c5ccccc54)c3)c2cc1OC [Compound A, 1-[2-(4S)-4-hydroxy-1,2,3,4-tetrahydroquinolin-1-yl]-4-pyridyl]-2,3-bis(dihydroxymethyl)-6,7-dimethoxynaphthalene sesquihydrate]
7th day
  Ear auricle thickness (Mean): 0.35 mm
8th day
  Ear auricle thickness (Mean): 0.44** mm
9th day
  Ear auricle thickness (Mean): 0.39** mm
10th day
  Ear auricle thickness (Mean): 0.46** mm
11th day
  Ear auricle thickness (Mean): 0.44** mm
12th day
  Ear auricle thickness (Mean): 0.48** mm
14th day
  Ear auricle thickness (Mean): 0.44** mm
15th day
  Ear auricle thickness (Mean): 0.54** mm
16th day
  Ear auricle thickness (Mean): 0.47** mm
17th day
  Ear auricle thickness (Mean): 0.50** mm
Sensitization day, BALB/c male mouse
  Ear auricle thickness (Mean): 0.27 mm
